Laboratory results: PubChem BioAssay (NCI)
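A five-concentration, 48-hour dose response in 96-well plates underlies each endpoint, interpolated linearly between surrounding concentrations. At the GI50, growth is halved. TGI: concentration producing complete growth inhibition.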

Experiments:
Assay in all cases: DTP human tumour cell line panel, 48 h
RPMI-8226 leukemia = tested on: RPMI-8226 leukemia
SK-MEL-5 melanoma = tested on: SK-MEL-5 melanoma
SF-295 CNS = tested on: SF-295 CNS
786-0 renal = tested on: 786-0 renal
HOP-62 NSCLC = tested on: HOP-62 NSCLC
SK-MEL-28 melanoma = tested on: SK-MEL-28 melanoma
HCC-2998 colon = tested on: HCC-2998 colon
OVCAR-4 ovarian = tested on: OVCAR-4 ovarian
SF-539 CNS = tested on: SF-539 CNS
OVCAR-8 ovarian = tested on: OVCAR-8 ovarian
SK-MEL-2 melanoma = tested on: SK-MEL-2 melanoma
HOP-92 NSCLC = tested on: HOP-92 NSCLC
TK-10 renal = tested on: TK-10 renal
CAKI-1 renal = tested on: CAKI-1 renal
HCT-15 colon = tested on: HCT-15 colon
LOX IMVI melanoma = tested on: LOX IMVI melanoma
HCT-116 colon = tested on: HCT-116 colon
A549 NSCLC = tested on: A549 NSCLC
NCI-H226 lung = tested on: NCI-H226 lung
KM12 colon = tested on: KM12 colon
SR leukemia = tested on: SR leukemia
MDA-MB-231 breast = tested on: MDA-MB-231 breast
MOLT-4 leukemia = tested on: MOLT-4 leukemia
T-47D breast = tested on: T-47D breast
EKVX NSCLC = tested on: EKVX NSCLC
OVCAR-3 ovarian = tested on: OVCAR-3 ovarian
SK-OV-3 ovarian = tested on: SK-OV-3 ovarian
ACHN renal = tested on: ACHN renal
U251 CNS = tested on: U251 CNS
BT-549 breast = tested on: BT-549 breast
HS 578T breast = tested on: HS 578T breast
NCI-H460 lung = tested on: NCI-H460 lung
HT29 colon = tested on: HT29 colon
K-562 leukemia = tested on: K-562 leukemia
UACC-257 melanoma = tested on: UACC-257 melanoma
RXF 393 renal = tested on: RXF 393 renal
UACC-62 melanoma = tested on: UACC-62 melanoma
DU-145 prostate = tested on: DU-145 prostate
SNB-75 CNS = tested on: SNB-75 CNS
PC-3 prostate = tested on: PC-3 prostate
SF-268 CNS = tested on: SF-268 CNS
A498 renal = tested on: A498 renal
MALME-3M melanoma = tested on: MALME-3M melanoma
MCF7 breast = tested on: MCF7 breast
NCI-H522 lung = tested on: NCI-H522 lung
OVCAR-5 ovarian = tested on: OVCAR-5 ovarian
M14 melanoma = tested on: M14 melanoma
UO-31 renal = tested on: UO-31 renal
MDA-MB-435 = tested on: MDA-MB-435
MDA-MB-468 breast = tested on: MDA-MB-468 breast
SN12C renal = tested on: SN12C renal
COLO 205 colon = tested on: COLO 205 colon
HL-60(TB) leukemia = tested on: HL-60(TB) leukemia
IGROV1 ovarian = tested on: IGROV1 ovarian
SW-620 colon = tested on: SW-620 colon
CCRF-CEM leukemia = tested on: CCRF-CEM leukemia
SNB-19 CNS = tested on: SNB-19 CNS
NCI-H23 lung = tested on: NCI-H23 lung

Question: With `C=C1CC[C@@H]2[C@]3(C)COC(c4cn[nH]c4-c4ccc(C)cc4)O[C@@H]3CC[C@@]2(C)[C@@H]1C/C=C1/C(=O)OCC1O` (stereo partly specified) as the compound, how does the GI50 (RPMI-8226 leukemia) read?
Answer: 4.73 µM

Question: And the TGI (RPMI-8226 leukemia)?
Answer: > 100 µM

Question: And the GI50 (SK-MEL-5 melanoma)?
Answer: 12.6 µM

Question: And the TGI (SK-MEL-5 melanoma)?
Answer: 25.3 µM

Question: What about the GI50 (SF-295 CNS) of the same compound?
Answer: 18.2 µM

Question: What about the TGI (SF-295 CNS) of the same compound?
Answer: 36.5 µM

Question: And the GI50 (786-0 renal)?
Answer: 16.7 µM

Question: And the TGI (786-0 renal)?
Answer: 33.2 µM

Question: What about the GI50 (HOP-62 NSCLC) of the same compound?
Answer: 21.7 µM

Question: And the TGI (HOP-62 NSCLC)?
Answer: 75.2 µM

Question: And the GI50 (SK-MEL-28 melanoma)?
Answer: 12.8 µM

Question: And the TGI (SK-MEL-28 melanoma)?
Answer: 27 µM

Question: What about the GI50 (HCC-2998 colon) of the same compound?
Answer: 16.7 µM

Question: And the TGI (HCC-2998 colon)?
Answer: 30.4 µM

Question: What about the GI50 (OVCAR-4 ovarian) of the same compound?
Answer: 64.8 µM

Question: What about the TGI (OVCAR-4 ovarian) of the same compound?
Answer: > 100 µM

Question: What about the GI50 (SF-539 CNS) of the same compound?
Answer: 12.7 µM

Question: And the TGI (SF-539 CNS)?
Answer: 25.3 µM

Question: What about the GI50 (OVCAR-8 ovarian) of the same compound?
Answer: 9.29 µM

Question: And the TGI (OVCAR-8 ovarian)?
Answer: > 100 µM

Question: What about the GI50 (SK-MEL-2 melanoma) of the same compound?
Answer: 13.9 µM

Question: And the TGI (SK-MEL-2 melanoma)?
Answer: 30.4 µM

Question: What about the GI50 (HOP-92 NSCLC) of the same compound?
Answer: 17.8 µM

Question: What about the TGI (HOP-92 NSCLC) of the same compound?
Answer: 42.5 µM

Question: What about the GI50 (TK-10 renal) of the same compound?
Answer: 22.5 µM

Question: What about the TGI (TK-10 renal) of the same compound?
Answer: 48.3 µM

Question: And the GI50 (CAKI-1 renal)?
Answer: 12.5 µM

Question: And the TGI (CAKI-1 renal)?
Answer: > 100 µM

Question: And the GI50 (HCT-15 colon)?
Answer: 10.1 µM

Question: What about the TGI (HCT-15 colon) of the same compound?
Answer: 25.5 µM

Question: What about the GI50 (LOX IMVI melanoma) of the same compound?
Answer: 3.76 µM

Question: And the TGI (LOX IMVI melanoma)?
Answer: 15.7 µM

Question: And the GI50 (HCT-116 colon)?
Answer: 5.33 µM

Question: What about the TGI (HCT-116 colon) of the same compound?
Answer: 20.6 µM

Question: And the GI50 (A549 NSCLC)?
Answer: 26.4 µM

Question: And the TGI (A549 NSCLC)?
Answer: > 100 µM

Question: And the GI50 (NCI-H226 lung)?
Answer: 17.8 µM

Question: What about the TGI (NCI-H226 lung) of the same compound?
Answer: 44.7 µM

Question: What about the GI50 (KM12 colon) of the same compound?
Answer: 13.7 µM

Question: And the TGI (KM12 colon)?
Answer: 35.8 µM

Question: And the GI50 (SR leukemia)?
Answer: 7.16 µM

Question: And the TGI (SR leukemia)?
Answer: > 100 µM

Question: What about the GI50 (MDA-MB-231 breast) of the same compound?
Answer: 19.2 µM

Question: And the TGI (MDA-MB-231 breast)?
Answer: 43.5 µM

Question: What about the GI50 (MOLT-4 leukemia) of the same compound?
Answer: 5.14 µM

Question: What about the TGI (MOLT-4 leukemia) of the same compound?
Answer: > 100 µM

Question: And the GI50 (T-47D breast)?
Answer: 13.9 µM

Question: And the TGI (T-47D breast)?
Answer: > 100 µM

Question: And the GI50 (EKVX NSCLC)?
Answer: 18.2 µM

Question: And the TGI (EKVX NSCLC)?
Answer: 43.8 µM

Question: What about the GI50 (OVCAR-3 ovarian) of the same compound?
Answer: 3.39 µM

Question: And the TGI (OVCAR-3 ovarian)?
Answer: 13.8 µM

Question: What about the GI50 (SK-OV-3 ovarian) of the same compound?
Answer: 26.5 µM

Question: And the TGI (SK-OV-3 ovarian)?
Answer: 74.8 µM

Question: What about the GI50 (ACHN renal) of the same compound?
Answer: 15.7 µM

Question: And the TGI (ACHN renal)?
Answer: 36.3 µM

Question: And the GI50 (U251 CNS)?
Answer: 11.9 µM

Question: And the TGI (U251 CNS)?
Answer: 28.6 µM

Question: What about the GI50 (BT-549 breast) of the same compound?
Answer: 11.1 µM

Question: And the TGI (BT-549 breast)?
Answer: 37.8 µM

Question: And the GI50 (HS 578T breast)?
Answer: 63.9 µM

Question: What about the TGI (HS 578T breast) of the same compound?
Answer: > 100 µM

Question: What about the GI50 (NCI-H460 lung) of the same compound?
Answer: 20 µM

Question: What about the TGI (NCI-H460 lung) of the same compound?
Answer: 46.9 µM

Question: And the GI50 (HT29 colon)?
Answer: 13.1 µM

Question: And the TGI (HT29 colon)?
Answer: 45.8 µM

Question: And the GI50 (K-562 leukemia)?
Answer: 5.55 µM

Question: What about the TGI (K-562 leukemia) of the same compound?
Answer: > 100 µM

Question: And the GI50 (UACC-257 melanoma)?
Answer: 15.2 µM

Question: And the TGI (UACC-257 melanoma)?
Answer: 44.4 µM

Question: What about the GI50 (RXF 393 renal) of the same compound?
Answer: 12.5 µM

Question: What about the TGI (RXF 393 renal) of the same compound?
Answer: 25 µM

Question: And the GI50 (UACC-62 melanoma)?
Answer: 13.3 µM

Question: And the TGI (UACC-62 melanoma)?
Answer: 27 µM

Question: What about the GI50 (DU-145 prostate) of the same compound?
Answer: 24.6 µM

Question: What about the TGI (DU-145 prostate) of the same compound?
Answer: > 100 µM

Question: What about the GI50 (SNB-75 CNS) of the same compound?
Answer: 20.6 µM

Question: And the TGI (SNB-75 CNS)?
Answer: > 100 µM

Question: What about the GI50 (PC-3 prostate) of the same compound?
Answer: 21.7 µM

Question: And the TGI (PC-3 prostate)?
Answer: > 100 µM

Question: What about the GI50 (SF-268 CNS) of the same compound?
Answer: 34.7 µM

Question: What about the TGI (SF-268 CNS) of the same compound?
Answer: > 100 µM

Question: What about the GI50 (A498 renal) of the same compound?
Answer: 21 µM

Question: And the TGI (A498 renal)?
Answer: 37.2 µM

Question: And the GI50 (MALME-3M melanoma)?
Answer: 15.8 µM

Question: And the TGI (MALME-3M melanoma)?
Answer: 33.5 µM

Question: What about the GI50 (MCF7 breast) of the same compound?
Answer: 4.88 µM

Question: What about the TGI (MCF7 breast) of the same compound?
Answer: 19.4 µM

Question: And the GI50 (NCI-H522 lung)?
Answer: 7.01 µM

Question: And the TGI (NCI-H522 lung)?
Answer: 22.5 µM

Question: And the GI50 (OVCAR-5 ovarian)?
Answer: 15.5 µM

Question: And the TGI (OVCAR-5 ovarian)?
Answer: 32.6 µM

Question: And the GI50 (M14 melanoma)?
Answer: 12.6 µM

Question: What about the TGI (M14 melanoma) of the same compound?
Answer: 26.2 µM

Question: What about the GI50 (UO-31 renal) of the same compound?
Answer: 12.5 µM

Question: What about the TGI (UO-31 renal) of the same compound?
Answer: 25.7 µM

Question: And the GI50 (MDA-MB-435)?
Answer: 7.38 µM

Question: What about the TGI (MDA-MB-435) of the same compound?
Answer: 73.9 µM

Question: What about the GI50 (MDA-MB-468 breast) of the same compound?
Answer: 6.94 µM

Question: And the TGI (MDA-MB-468 breast)?
Answer: 22.1 µM

Question: And the GI50 (SN12C renal)?
Answer: 17.3 µM

Question: And the TGI (SN12C renal)?
Answer: 42.8 µM

Question: And the GI50 (COLO 205 colon)?
Answer: 15.5 µM

Question: What about the TGI (COLO 205 colon) of the same compound?
Answer: 29.9 µM

Question: And the GI50 (HL-60(TB) leukemia)?
Answer: 3.38 µM

Question: And the TGI (HL-60(TB) leukemia)?
Answer: 56.4 µM

Question: And the GI50 (IGROV1 ovarian)?
Answer: 17.5 µM

Question: And the TGI (IGROV1 ovarian)?
Answer: 39.7 µM

Question: What about the GI50 (SW-620 colon) of the same compound?
Answer: 4.6 µM

Question: And the TGI (SW-620 colon)?
Answer: 17.5 µM

Question: And the GI50 (CCRF-CEM leukemia)?
Answer: 2850 nM

Question: And the TGI (CCRF-CEM leukemia)?
Answer: > 100 µM

Question: What about the GI50 (SNB-19 CNS) of the same compound?
Answer: 14.5 µM

Question: And the TGI (SNB-19 CNS)?
Answer: 27.6 µM

Question: What about the GI50 (NCI-H23 lung) of the same compound?
Answer: 14 µM

Question: What about the TGI (NCI-H23 lung) of the same compound?
Answer: 27 µM
